Laboratory results as given in the RepoRT retention time repository (doi:10.1021/acs.analchem.2c02893).

Legend:
Conditions in all cases: stereoisomer not certain
[1] = RP, Waters ACQUITY UPLC BEH C18, 100 × 2.1 mm, 1.7 µm, 30 °C, 0.35 mL/min, estimated dead time 0.63 min; A: water + 0.01% formic acid + 5 mM ammonium formate, pH 3.71; B: acetonitrile + 0.01% formic acid, pH 3.71; gradient (min/%B) 0/10 3/10 22/100 30/100 30.1/10 40/10
[2] = RP, Waters ACQUITY UPLC BEH C18, 100 × 2.1 mm, 1.7 µm, 35 °C, 0.35 mL/min, estimated dead time 0.63 min; A: water + 0.01% formic acid + 5 mM ammonium formate, pH 3.71; B: acetonitrile + 0.01% formic acid, pH 3.71; gradient (min/%B) 0/5 0.5/5 16/95 16.1/99 19/99 19.1/5 21/5
[3] = RP, Thermo Scientific Acclaim RSLC 120 C18, 100 × 2.1 mm, 2.2 µm, 30 °C, 0.2 mL/min, estimated dead time 1.1 min; A: water + 0.1% formic acid, pH 2.6; B: methanol + 0.1% formic acid, pH 2.6; gradient (min/%B) 0/10 4/50 17/95 25/95 25.1/10 30/10
[4] = RP, Thermo Scientific Acclaim RSLC 120 C18, 100 × 2.1 mm, 2.2 µm, 30 °C, 0.2 mL/min, estimated dead time 1.1 min; A: 90% water + 10% methanol + 0.01% formic acid + 5 mM ammonium formate, pH 3.61; B: methanol + 0.01% formic acid + 5 mM ammonium formate, pH 3.61; gradient (min/%B) 0/1 1/1 2/39 13/99.9 15/99.9 15.1/1 20.1/1

| SMILES | LC retention time [1] [min] | LC retention time [2] [min] | LC retention time [3] [min] | LC retention time [4] [min] |
| --- | --- | --- | --- | --- |
| CN(C)CC1CCCCC1(O)c1cccc(O)c1 (centres undefined) [Tramadol-O-Desmethyl] | 3.56 | 3.48 | 3.86 | 4.06 |
| N#CSCSc1nc2ccccc2s1 [TCMTB] | 13.4 | 10.1 | 11.4 | 9.25 |
| CC(C)NCC(O)COc1ccc(COCCOC(C)C)cc1 (centres undefined) [Bisoprolol] | 8.09 | 5.91 | 5.8 | 5.91 |
| COCCc1ccc(OCC(O)CNC(C)C)cc1 (centres undefined) [Metoprolol] | 6.53 | 4.79 | 4.94 | 4.93 |
| COc1ccc(Cc2cnc(N)nc2N)cc1OC [Diaveridine] | 3.36 | 3.48 | 3.67 | 3.88 |
| Cn1cnc2c1c(=O)[nH]c(=O)n2C [Theobromine] | 1.23 | 1.65 | 3.37 | 3.28 |
| CC12CCC(O)CC1CCC1C2C(=O)CC2(C)C1CCC2(O)C(=O)CO (centres undefined) | 9.93 | 7.37 | 11.2 | 9.21 |
| Nc1nnc(-c2cccc(Cl)c2Cl)c(N)n1 [Lamotrigine] | 6.41 | 4.66 | 5.17 | 5.31 |
| CCOP(=O)(OCC)OCC [Phosphate-triethyl] | 7.31 | 5.48 | 6.94 | 6.16 |
| C=CC(N)CCC(=O)O (centres undefined) [Vigabatrin] | 0.81 | 0.83 | 1.34 | 1.38 |
| CN1CCC23c4c5ccc(O)c4OC2C(O)C=CC3C1C5 (centres undefined) [Morphine (MOR)] | 1.21 | 1.47 | 2.11 | 2.54 |
